The values below come from patent US20100041672A1, “USE OF QUINOLINE DERIVATIVES IN THE TREATMENT OF PAIN AND IRRITABLE BOWEL SYNDROME” (GLAXO GROUP LIMITED, priority 2007, published 2010).

In one test the test system is Random Hooded rats. The test is described as follows: rat joint pain model of chronic inflammatory pain (intra-articular FCA, hind paw weight bearing). The test is classed as in vivo. The note with it: for Statistics for hypersensitivity data (weight bearing), significance vs vehicle, Day 17: Day 17 post FCA; for Statistics for hypersensitivity data (weight bearing), significance vs vehicle, Day 15: Day 15 post FCA; for Statistics for hypersensitivity data (weight bearing), significance vs vehicle, Day 14: Day 14 post FCA; for effect on hypersensitivity in the joint pain model of chronic inflammatory pain: once daily oral dosing days 13-17 post intra-articular FCA; for Statistics for hypersensitivity data (weight bearing), significance vs vehicle, Day 13: Day 13 post FCA; for Statistics for hypersensitivity data (weight bearing), significance vs vehicle, Day 16: Day 16 post FCA. On the procedure:
Random Hooded rats, 150-180 g, obtained from Charles River UK, were anaesthetised under gaseous anaesthetic and the area surrounding the left and right knee joint shaved and cleaned as for aseptic surgery. Animals were injected with 150 μl of FCA into the left knee joint (intra-articular injection). Animals were immediately allowed to recover from anaesthetic in a warmed/oxygenated environment until being returned to their home cage on paper bedding. No further post-op care was provided.
Rats were tested prior to surgery and from 18 h post FCA (minimum of once weekly) for weight bearing (g) and joint diameter (mm). Weight bearing is measured by the animal's ability to place body weight across both hind paws on a Dual Channel Weight Averager which was calibrated each day prior to use using a 10 g weight (Rat capacitance tester—Linton Instruments). Hind paw weight bearing data was calculated and expressed as the percentage of the contralateral paw.
All data were expressed as mean±s.e.m.
Prior to FCA intra-articular injection into the left knee, rats display even weight bearing. By day 1 post-insult weight bearing had shifted such that the majority of the body weight was transmitted through the contralateral limb. By day 10 this effect was maintained and at this point animals were randomised across treatment groups. Once daily dosing with vehicle, SB742457 or celecoxib began on day 13 and continued up to and including day 17.
Rats were tested prior to surgery and from 18 h post FCA (minimum of once weekly) for weight bearing (g) and joint diameter (mm). Weight bearing is measured by the animal's ability to place body weight across both hind paws on a Dual Channel Weight Averager which was calibrated each day prior to use using a 100 g weight (Rat capacitance tester—Linton Instruments). Hind paw weight bearing data was calculated and expressed as the percentage of the contralateral paw.
Prior to FCA intra-articular injection into the left knee, rats display even weight bearing. By day 1 post-insult weight bearing had shifted such that the majority of the body weight was transmitted through the contralateral limb. By day 10 this effect was maintained and at this point animals were randomised across treatment groups. Once daily dosing with vehicle, SB792988A or celecoxib began on day 13 and continued up to and including day 17. […] AUC was calculated using Microsoft Excel.

For another test, the system named is rats. The test is described as follows: FCA induced hypersensitivity rat model (intraplantar FCA, weight bearing). It is filed as in vivo. The note with it: 1 hour post dose; for weight bearing % reversal: 24 hrs after FCA; for effect on FCA induced hypersensitivity: p.o., intraplantar FCA. On the procedure:
(§1) Naïve weight bearing readings were taken. The hypersensitivity to pain was measured using the Rat incapacitance tester (Linton instruments). All rats (180-220 g) received an intraplantar injection of 100 ul of FCA (Freund's complete adjuvant) into the left hind paw. The FCA was sonicated for 15 minutes prior to use. 24 hrs after administration of the FCA, pre-dose weight bearing readings were taken. All animals were then ranked and randomised for dosing according to their FCA window (predose difference in grams—naïve difference in grams). Rats with FCA window less than 30 were excluded from the study.
Animals were then dosed orally with either vehicle, SB42457 (0.01, 0.1, 1 and 10 mg/kg p.o.) or celecoxib (10 mg/kg p.o.) as appropriate according to ranking and randomisation. Animals were assessed in the weight bearing apparatus 1 hour post dose.
The study was blind and randomised by FCA window using the Latin square method. % reversals were calculated by using the naïve, pre-dose and post dose values as follows: % Reversal=[(Pre-dose−Post-dose)/(Pre-dose−Naïve)]×100.
Graphs were plotted using Prism3. Statistical analysis was carried out using ANOVA and Fischer LSD test from statistical package Statistica 6.
In this study a positive control was also tested (celecoxib).
as §1, with “(200-220” for “(180-220”
Animals were then dosed orally with vehicle, SB-792988-A (0.01, 0.1, 1 and 10 mg/kg p.o.), SB-399885-A (10 mg/kg p.o.) or celecoxib (10 mg/kg p.o.) as appropriate according to ranking and randomisation. Animals were assessed in the weight bearing apparatus 1 hour post dose.
Graphs and were plotted using Prism3. Statistical analysis was carried out using ANOVA and Fischer LSD test from statistical package Statistica 6.

[1] abbreviates: 1 mg/kg oral once daily from day 13.
Setting [2] is: 10 mg/kg oral once daily from day 13.
Setting [3] is: 0.1 mg/kg oral once daily from day 13, SB792988A study.
The mark [4] stands for this setting: 1 mg/kg oral once daily from day 13, SB792988A study.
[5] abbreviates: 3 mg/kg oral once daily from day 13, SB792988A study.
[6] abbreviates: 10 mg/kg oral once daily from day 13, SB792988A study.

SMILES strings stand for the structures.

As to `O=S(=O)(c1ccccc1)c1cnc2c(N3CCNCC3)cccc2c1` [SB742457, 3-Phenylsulfonyl-8-piperazin-1-yl-quinoline], the figures for the “Statistics for hypersensitivity data (weight bearing), significance vs vehicle, Day 17” value in the test on Random Hooded rats (0.1 mg/kg oral once daily from day 13), with Random Hooded rats (setting [1]) and with Random Hooded rats (setting [2]) were “** (** = p < 0.01)”, “*** (*** = p < 0.001)” and “*** (*** = p < 0.001)”, respectively. The “Statistics for hypersensitivity data, significance vs vehicle, AUC” value in the test with Random Hooded rats (1 mg/kg oral once daily days 13-17) and with Random Hooded rats (10 mg/kg oral once daily days 13-17) was “*** (*** = p < 0.001)” in each case. The “Statistics for hypersensitivity data (weight bearing), significance vs vehicle, Day 15” value in the test with Random Hooded rats (setting [1]) and in the test with Random Hooded rats (setting [2]) was “*** (*** = p < 0.001)” each time. Moreover, in the test with Random Hooded rats (setting [2]), the “Statistics for hypersensitivity data (weight bearing), significance vs vehicle, Day 14” value is recorded as “** (** = p < 0.01)”. Also, the separation from vehicle result in the test on Random Hooded rats (all doses above and including 0.1 mg/kg) is recorded as “significant separation from vehicle on at least one day”. In the test on Random Hooded rats (highest dose of 10 mg/kg vs 30 mg/kg celecoxib), the “effect compared with the positive control, celecoxib” value is given as “not statistically different”. Besides, the “effect on hypersensitivity in the joint pain model of chronic inflammatory pain” value with Random Hooded rats is “reversed hypersensitivity”. In addition, the “weight bearing % reversal” value in the test on rats (0.01 mg/kg p.o., Table 5) was 27.68 ± 6.39%; in the test with rats (0.1 mg/kg p.o., Table 5) it was 53.09 ± 5.68%; in the test on rats (1 mg/kg p.o., Table 5), 60.17 ± 6.73%; in the test on rats (10 mg/kg p.o., Table 5), 76.97 ± 7.17%. Moreover, the “effect on FCA induced hypersensitivity” value with rats is reported as “dose-dependent reversal”.

Take `Cl.O=S(=O)(c1cccc(F)c1)c1cnc2c(N3CCNCC3)cccc2c1` [SB792988A, 3-[(3-Fluorophenyl)sulfonyl]-8-(1-piperazinyl)quinoline Hydrochloride]: the “Statistics for hypersensitivity data (weight bearing), significance vs vehicle, Day 13” value is “* (* = p < 0.05)” in the test with Random Hooded rats (setting [3]) and “** (** = p < 0.01)” with Random Hooded rats (setting [5]). Besides, the “Statistics for hypersensitivity data (weight bearing), significance vs vehicle, Day 17” value is given as “* (* = p < 0.05)” with Random Hooded rats (setting [3]), “* (* = p < 0.05)” with Random Hooded rats (setting [4]), “*** (*** = p < 0.001)” in the test with Random Hooded rats (setting [5]) and “*** (*** = p < 0.001)” in the test with Random Hooded rats (setting [6]). For the same molecule, the “Statistics for hypersensitivity data (weight bearing), significance vs vehicle, Day 14” value was “* (* = p < 0.05)” in the test with Random Hooded rats (setting [4]) and “*** (*** = p < 0.001)” with Random Hooded rats (setting [6]). Further, the “Statistics for hypersensitivity data (weight bearing), significance vs vehicle, Day 15” value in the test with Random Hooded rats (setting [5]) and in the test with Random Hooded rats (setting [6]) was “*** (*** = p < 0.001)” throughout. In addition, the figures for the “Statistics for hypersensitivity data (weight bearing), significance vs vehicle, Day 16” value in the test on Random Hooded rats (setting [5]) and in the test with Random Hooded rats (setting [6]) were “* (* = p < 0.05)” and “*** (*** = p < 0.001)”, respectively. For the same molecule, the separation from vehicle entry in the test with Random Hooded rats (all doses (0.1, 1, 3, 10 mg/kg)) is given as “significant separation from vehicle on various days”. For the same molecule, in the test on Random Hooded rats (highest doses of 3 and 10 mg/kg vs 30 mg/kg celecoxib), the “effect compared with the positive control, celecoxib” value is listed as “not statistically different”. Also, in the test on Random Hooded rats, the “effect on hypersensitivity in the joint pain model of chronic inflammatory pain” value was “reversed hypersensitivity”. Also, the “weight bearing % reversal” value is given as 22.91 ± 4.13% in the test with rats (0.01 mg/kg p.o., Table 7); 22.11 ± 5.18% in the test with rats (0.1 mg/kg p.o., Table 7); 38.76 ± 5.88% in the test with rats (1 mg/kg p.o., Table 7); 67.00 ± 5.08% with rats (10 mg/kg p.o., Table 7). The “effect on FCA induced hypersensitivity” value in the test on rats is on record as “dose-dependent reversal”.
